The values below come from PMC9703800 (BMC Chemistry, 2022).

The subject of one assay is PC12 cells. In words: Neuroprotectivity against H2O2-induced cell death in PC12 cells (MTT). In kind it is cell-based. The conditions noted are these: 50 µM, positive control, H2O2 400 μM.
The target of assay [1] is butyrylcholinesterase (BChE) (Equus caballus, UniProt P81908). In words: biochemical. Particulars: for inhibition at 40 µg/mL: read-out: BChE inhibition (%); for IC50: isolated compounds, mean ± SD, three experiments, read-out: BChEI (μM), IC50. In kind it is biochemical.
butyrylcholinesterase (BChE), sequence (P81908 whole entry): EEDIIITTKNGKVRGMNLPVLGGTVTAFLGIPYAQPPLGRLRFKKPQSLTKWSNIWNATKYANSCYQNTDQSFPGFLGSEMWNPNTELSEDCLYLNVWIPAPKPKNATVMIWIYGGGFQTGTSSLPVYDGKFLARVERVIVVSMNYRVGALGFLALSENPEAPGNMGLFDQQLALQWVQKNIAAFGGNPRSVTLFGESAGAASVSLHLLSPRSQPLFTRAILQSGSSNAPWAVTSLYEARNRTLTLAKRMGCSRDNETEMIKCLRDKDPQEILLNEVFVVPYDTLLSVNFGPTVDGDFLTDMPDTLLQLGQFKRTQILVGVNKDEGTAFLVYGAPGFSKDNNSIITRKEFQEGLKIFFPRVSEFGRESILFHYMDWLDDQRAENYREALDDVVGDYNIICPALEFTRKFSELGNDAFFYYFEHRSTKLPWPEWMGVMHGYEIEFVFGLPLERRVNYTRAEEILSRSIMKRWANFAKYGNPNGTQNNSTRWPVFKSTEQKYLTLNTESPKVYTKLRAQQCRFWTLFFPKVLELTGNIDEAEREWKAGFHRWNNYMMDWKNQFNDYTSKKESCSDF
The target in assay [2] is T1, Acetylcholinesterase (AChE) (Electrophorus electricus, UniProt O42275).
T1 construct: Type V-S, lyophilized powder, from electric eel; purchased Sigma-Aldrich; host or cells: electric eel (natural source)
T1 sequence (O42275 24-633): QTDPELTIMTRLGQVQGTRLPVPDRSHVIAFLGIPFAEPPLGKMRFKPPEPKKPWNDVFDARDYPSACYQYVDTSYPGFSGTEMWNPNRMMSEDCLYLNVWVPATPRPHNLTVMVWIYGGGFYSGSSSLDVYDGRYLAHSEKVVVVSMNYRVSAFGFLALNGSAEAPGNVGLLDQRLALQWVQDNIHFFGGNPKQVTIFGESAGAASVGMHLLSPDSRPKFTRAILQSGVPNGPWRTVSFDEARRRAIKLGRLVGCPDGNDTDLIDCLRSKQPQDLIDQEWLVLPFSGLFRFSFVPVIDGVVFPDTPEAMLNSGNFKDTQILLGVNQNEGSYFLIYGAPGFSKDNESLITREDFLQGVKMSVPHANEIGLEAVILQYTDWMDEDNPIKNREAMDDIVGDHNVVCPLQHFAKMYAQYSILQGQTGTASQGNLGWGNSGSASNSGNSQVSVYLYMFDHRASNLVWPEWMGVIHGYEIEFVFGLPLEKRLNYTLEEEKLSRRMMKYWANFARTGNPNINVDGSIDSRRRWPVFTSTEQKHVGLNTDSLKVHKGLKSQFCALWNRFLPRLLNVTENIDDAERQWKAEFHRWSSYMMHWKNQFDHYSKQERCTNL
In words: biochemical. In kind it is biochemical. The conditions noted are these: for inhibition at 40 µg/mL: read-out: AChE inhibition (%); for IC50: isolated compounds, mean ± SD, three experiments, read-out: AChEI (μM), IC50.

Another assay has as its target T2, AChE (Electrophorus electricus, UniProt O42275).
T2 construct: Type V-S, lyophilized powder, from electric eel; purchased Sigma-Aldrich; host or cells: electric eel (natural source)
Kind of assay: Kinetic study of AChE inhibition (Lineweaver-Burk). In kind it is biochemical. On the procedure:
(§1) Kinetic studies of compound 2 were performed for the inhibition of ChEs based on the Ellman's method, using various concentrations of the inhibitor [14]. […]

The next assay addresses BChE (Equus caballus, UniProt P81908). Kind of assay: Kinetic study of BChE inhibition (Lineweaver-Burk). In kind it is biochemical. Here is the method:
as §1

Entries after “also recorded” stand apart in the source; their conditions may differ.

BChE, sequence (P81908 whole entry): as the sequence (P81908 whole entry) above
T2 sequence (O42275 24-633): as the sequence (O42275 24-633) above

Regarding `O=c1c(O)c(-c2ccc(O)c(O)c2)oc2cc(O)cc(O)c12` [quercetin], the “Neuroprotection (%) against H2O2-induced cell death” value in the assay with PC12 cells was found to be 72.79%.

As a reminder, the inhibition is the share of the control response that was lost under treatment. `COc1cc(CC(C)C(C)Cc2ccc3c(c2)OCO3)ccc1O` (stereo not drawn) [Compound 5, 4-(4-(Benzo[d][1,3]dioxol-5-yl)-2,3-dimethylbutyl)-2-methoxyphenol]: the inhibition at 40 µg/mL in assay [1] came to 54.4%; in assay [2], 12.8%.

With `COc1ccc(CC(C)C(C)Cc2ccc(O)c(O)c2)cc1OC` (stereo not drawn) [Compound 3, 4-(4-(3,4-Dimethoxyphenyl)-2,3-dimethylbutyl)benzene-1,2-diol], the inhibition at 40 µg/mL came out at 47.4% in assay [1] and 0% in assay [2].

Consider `COc1cc([C@H]2O[C@@H](c3ccc(O)c(OC)c3)[C@H](C)[C@@H]2C)ccc1O` [Compound 4, 4,4'-((2R,3R,4S,5S)-3,4-Dimethyltetrahydrofuran-2,5-diyl)bis(2-methoxyphenol)], for which the inhibition at 40 µg/mL came out at 45.8% in assay [1] and 0% in assay [2].

By IC50 is commonly meant the midpoint of a concentration-inhibition curve. In the case of `O=C(CCCCCCCCc1ccccc1)c1c(O)cccc1O` [Compound 1, 1-(2,6-Dihydroxyphenyl)-9-phenylnonan-1-one], in assay [1], the “BChE inhibitory activity (in words)” value is reported as “potent inhibitors; also recorded: strong inhibitors” and the IC50 was 27.16 ± 0.06 µM. In assay [2], the “AChE inhibitory activity (in words)” value was “potent inhibitors; also recorded: strong inhibitors” and the IC50 came out at 67.4 ± 1.52 µM.

In general, Ki refers to a measure of affinity in units of concentration, obtained from inhibition or displacement. Turning to `O=C(CCCCCCCCc1ccc(O)c(O)c1)c1c(O)cccc1O` [Compound 2, 1-(2,6-Dihydroxyphenyl)-9-(3,4-dihydroxyphenyl)nonan-1-one], in assay [1], the “BChE inhibitory activity (in words)” value was “potent inhibitors; also recorded: strong inhibitors”. Besides, the IC50 is 22.36 ± 0.03 µM in assay [1] and 25 ± 0.95 µM in assay [2]. Besides, in assay [2], the “AChE inhibitory activity (in words)” value is “potent inhibitors; also recorded: strong inhibitors”. The “Mechanism of AChE inhibition” value at AChE (Lineweaver-Burk plot) was “non-competitive inhibition; also recorded: non-competitively inhibited”. The Ki on AChE (Lineweaver-Burk, inhibitor 0, 28, 56, 112 μM) turned out to be 25 µM; at BChE (Lineweaver-Burk, inhibitor 0, 14, 28, 56 μM), 22.4 µM. The “Mechanism of BChE inhibition” value at BChE (Lineweaver-Burk plot) was “non-competitive inhibition; also recorded: non-competitively inhibited”.

Consider `COc1cc(C(OC)C(C)C(C)Cc2ccc3c(c2)OCO3)ccc1O` (stereo not drawn) [Compound 6, 4-(4-(Benzo[d][1,3]dioxol-5-yl)-1-methoxy-2,3-dimethylbutyl)-2-methoxyphenol], for which the inhibition at 40 µg/mL in assay [1] was found to be 44%; in assay [2], 0%.
